Molecules are shown by their SMILES.
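Note: spheroids exposed to the agents for seven days before readout; percent of vehicle control viability with DMSO wells as 100%.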

In one test the test system is 435261-313-R-J1-PDC complex spheroid viability. Put plainly: Anticancer human tumor 435261-313-R-J1-PDC patient-derived colon adenocarcinoma cell line growth inhibition [GQUAD]. The conditions noted are these: second compound 3.16 µM; first compound 0.1 µM; stronger effect = lower value. Summed up: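 Multi-cell-type spheroids of tumor cells with HUVEC and mesenchymal stem cells, treated with drug combinations. Concentrations descend in half-log steps from near clinical Cmax, or from 10 microM where Cmax is unknown; viability read-out.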
Broadly, the viability, T/C is the result in the treated group divided by that in the control group, in per cent. For the compound `CC1COCCN1c1cc(C2(S(C)(=N)=O)CC2)nc(-c2ccnc3[nH]ccc23)n1` (stereo unspecified) + CN(C)c1ccc(Nc2c3ccc(NC(=O)CCN4CCCC4)cc3nc3cc(NC(=O)CCN4CCCC4)ccc23)cc1, the viability, T/C was 55.8%.
Still for that read-out and setting: with `COc1ccc([C@@H](O)c2cc(-c3ncnc4cc(N5CCOCC5)ccc34)c(F)cc2Cl)nn1` + CN(C)c1ccc(Nc2c3ccc(NC(=O)CCN4CCCC4)cc3nc3cc(NC(=O)CCN4CCCC4)ccc23)cc1 the figure was 48%; with `O=C(c1cc(Cc2n[nH]c(=O)c3ccccc23)ccc1F)N1CCN(C(=O)C2CC2)CC1` + CN(C)c1ccc(Nc2c3ccc(NC(=O)CCN4CCCC4)cc3nc3cc(NC(=O)CCN4CCCC4)ccc23)cc1, 53.2%.

The test is the same for the next values; noted with them: second compound 3.16 µM; first compound 0.316 µM; stronger effect = lower value.
In the case of `CC(C)n1c(=O)n(C)c2cnc3cc(F)c(-c4ccc(OCCCN5CCCCC5)nc4)cc3c21` + CN(C)c1ccc(Nc2c3ccc(NC(=O)CCN4CCCC4)cc3nc3cc(NC(=O)CCN4CCCC4)ccc23)cc1, the viability, T/C was 42.5%.
Still for that read-out and setting: the figure for `CC1COCCN1c1cc(-c2ccnn2C)c2ccnc(-c3ccn[nH]3)c2n1` (stereo unspecified) + CN(C)c1ccc(Nc2c3ccc(NC(=O)CCN4CCCC4)cc3nc3cc(NC(=O)CCN4CCCC4)ccc23)cc1 is 41.5%.
The same measure, in the same setting: the figure for `CC1COCCN1c1cc(C2(S(C)(=N)=O)CC2)nc(-c2ccnc3[nH]ccc23)n1` (stereo unspecified) + CN(C)c1ccc(Nc2c3ccc(NC(=O)CCN4CCCC4)cc3nc3cc(NC(=O)CCN4CCCC4)ccc23)cc1 is 68.3%; for `COc1ccc([C@@H](O)c2cc(-c3ncnc4cc(N5CCOCC5)ccc34)c(F)cc2Cl)nn1` + CN(C)c1ccc(Nc2c3ccc(NC(=O)CCN4CCCC4)cc3nc3cc(NC(=O)CCN4CCCC4)ccc23)cc1 it is 69%; for `O=C(c1cc(Cc2n[nH]c(=O)c3ccccc23)ccc1F)N1CCN(C(=O)C2CC2)CC1` + CN(C)c1ccc(Nc2c3ccc(NC(=O)CCN4CCCC4)cc3nc3cc(NC(=O)CCN4CCCC4)ccc23)cc1 it is 66.8%.

The test is the same for the next values; noted with them: second compound 3.16 µM; first compound 1 µM; stronger effect = lower value.
As to `CC(C)n1c(=O)n(C)c2cnc3cc(F)c(-c4ccc(OCCCN5CCCCC5)nc4)cc3c21` + CN(C)c1ccc(Nc2c3ccc(NC(=O)CCN4CCCC4)cc3nc3cc(NC(=O)CCN4CCCC4)ccc23)cc1, the viability, T/C is 30.2%.
As for `CC1COCCN1c1cc(-c2ccnn2C)c2ccnc(-c3ccn[nH]3)c2n1` (stereo unspecified) + CN(C)c1ccc(Nc2c3ccc(NC(=O)CCN4CCCC4)cc3nc3cc(NC(=O)CCN4CCCC4)ccc23)cc1, the viability, T/C is 24.5%.
On the same count and under the same terms, with `CC1COCCN1c1cc(C2(S(C)(=N)=O)CC2)nc(-c2ccnc3[nH]ccc23)n1` (stereo unspecified) + CN(C)c1ccc(Nc2c3ccc(NC(=O)CCN4CCCC4)cc3nc3cc(NC(=O)CCN4CCCC4)ccc23)cc1 the figure was 76.2%.
Take `COc1ccc([C@@H](O)c2cc(-c3ncnc4cc(N5CCOCC5)ccc34)c(F)cc2Cl)nn1` + CN(C)c1ccc(Nc2c3ccc(NC(=O)CCN4CCCC4)cc3nc3cc(NC(=O)CCN4CCCC4)ccc23)cc1: the viability, T/C is 30%.
For the compound `O=C(c1cc(Cc2n[nH]c(=O)c3ccccc23)ccc1F)N1CCN(C(=O)C2CC2)CC1` + CN(C)c1ccc(Nc2c3ccc(NC(=O)CCN4CCCC4)cc3nc3cc(NC(=O)CCN4CCCC4)ccc23)cc1, the viability, T/C was 60%.

The same test, now with this note: second compound 3.16 µM; first compound 3.16 µM; stronger effect = lower value.
`CC(C)n1c(=O)n(C)c2cnc3cc(F)c(-c4ccc(OCCCN5CCCCC5)nc4)cc3c21` + CN(C)c1ccc(Nc2c3ccc(NC(=O)CCN4CCCC4)cc3nc3cc(NC(=O)CCN4CCCC4)ccc23)cc1: the viability, T/C was 39%.
`CC1COCCN1c1cc(-c2ccnn2C)c2ccnc(-c3ccn[nH]3)c2n1` (stereo unspecified) + CN(C)c1ccc(Nc2c3ccc(NC(=O)CCN4CCCC4)cc3nc3cc(NC(=O)CCN4CCCC4)ccc23)cc1: the viability, T/C was 16.4%.
For the compound `CC1COCCN1c1cc(C2(S(C)(=N)=O)CC2)nc(-c2ccnc3[nH]ccc23)n1` (stereo unspecified) + CN(C)c1ccc(Nc2c3ccc(NC(=O)CCN4CCCC4)cc3nc3cc(NC(=O)CCN4CCCC4)ccc23)cc1, the viability, T/C was 50.6%.
The same measure, in the same setting: with `COc1ccc([C@@H](O)c2cc(-c3ncnc4cc(N5CCOCC5)ccc34)c(F)cc2Cl)nn1` + CN(C)c1ccc(Nc2c3ccc(NC(=O)CCN4CCCC4)cc3nc3cc(NC(=O)CCN4CCCC4)ccc23)cc1 the figure was 24.6%; with `O=C(c1cc(Cc2n[nH]c(=O)c3ccccc23)ccc1F)N1CCN(C(=O)C2CC2)CC1` + CN(C)c1ccc(Nc2c3ccc(NC(=O)CCN4CCCC4)cc3nc3cc(NC(=O)CCN4CCCC4)ccc23)cc1, 77.4%.

The test is the same for the next values; noted with them: second compound 3.16 µM; first compound 10 µM; stronger effect = lower value.
Take `CC(C)n1c(=O)n(C)c2cnc3cc(F)c(-c4ccc(OCCCN5CCCCC5)nc4)cc3c21` + CN(C)c1ccc(Nc2c3ccc(NC(=O)CCN4CCCC4)cc3nc3cc(NC(=O)CCN4CCCC4)ccc23)cc1: the viability, T/C is 11.6%.
Same read-out and setting: with `CC1COCCN1c1cc(-c2ccnn2C)c2ccnc(-c3ccn[nH]3)c2n1` (stereo unspecified) + CN(C)c1ccc(Nc2c3ccc(NC(=O)CCN4CCCC4)cc3nc3cc(NC(=O)CCN4CCCC4)ccc23)cc1 the figure was 4.38%; with `CC1COCCN1c1cc(C2(S(C)(=N)=O)CC2)nc(-c2ccnc3[nH]ccc23)n1` (stereo unspecified) + CN(C)c1ccc(Nc2c3ccc(NC(=O)CCN4CCCC4)cc3nc3cc(NC(=O)CCN4CCCC4)ccc23)cc1, 45.3%; with `COc1ccc([C@@H](O)c2cc(-c3ncnc4cc(N5CCOCC5)ccc34)c(F)cc2Cl)nn1` + CN(C)c1ccc(Nc2c3ccc(NC(=O)CCN4CCCC4)cc3nc3cc(NC(=O)CCN4CCCC4)ccc23)cc1, 11.5%.
Turning to `O=C(c1cc(Cc2n[nH]c(=O)c3ccccc23)ccc1F)N1CCN(C(=O)C2CC2)CC1` + CN(C)c1ccc(Nc2c3ccc(NC(=O)CCN4CCCC4)cc3nc3cc(NC(=O)CCN4CCCC4)ccc23)cc1, the viability, T/C is 57.6%.

Staying with this test, now noted: second compound 10 µM; first compound 0.0316 µM; stronger effect = lower value.
`CC(C)n1c(=O)n(C)c2cnc3cc(F)c(-c4ccc(OCCCN5CCCCC5)nc4)cc3c21` + CN(C)c1ccc(Nc2c3ccc(NC(=O)CCN4CCCC4)cc3nc3cc(NC(=O)CCN4CCCC4)ccc23)cc1: the viability, T/C was 68.4%.
Same read-out and setting: the figure for `CC1COCCN1c1cc(-c2ccnn2C)c2ccnc(-c3ccn[nH]3)c2n1` (stereo unspecified) + CN(C)c1ccc(Nc2c3ccc(NC(=O)CCN4CCCC4)cc3nc3cc(NC(=O)CCN4CCCC4)ccc23)cc1 is 27.1%; for `CC1COCCN1c1cc(C2(S(C)(=N)=O)CC2)nc(-c2ccnc3[nH]ccc23)n1` (stereo unspecified) + CN(C)c1ccc(Nc2c3ccc(NC(=O)CCN4CCCC4)cc3nc3cc(NC(=O)CCN4CCCC4)ccc23)cc1 it is 55.3%.

For the origin of these results see PubChem BioAssay AID2060494 (Molecular Pharmacology Branch, DTP, NCI, 2025).
